Results from patent publication US9095535B2, “GABA release-regulating agent in cerebellum” (KOREA INSTITUTE OF SCIENCE AND TECHNOLOGY, priority 2009, dated 2015).

Experiments:
Best1 channel = target: T1, Best1 channel (Mus musculus, UniProt O88870); assay type: cell-based; details: NPPB and NFA at 100 μM; inward current in GABAc sensor cell
T1 construct: mBest1 full-length fragment from pGEM-T easy plasmid (6.65 kb, Promega) was subcloned into pcDNA 3.1; expressed in transfected cells; host or cells: HEK293T (ATCC)
T1 sequence (O88870 1-551 R255K): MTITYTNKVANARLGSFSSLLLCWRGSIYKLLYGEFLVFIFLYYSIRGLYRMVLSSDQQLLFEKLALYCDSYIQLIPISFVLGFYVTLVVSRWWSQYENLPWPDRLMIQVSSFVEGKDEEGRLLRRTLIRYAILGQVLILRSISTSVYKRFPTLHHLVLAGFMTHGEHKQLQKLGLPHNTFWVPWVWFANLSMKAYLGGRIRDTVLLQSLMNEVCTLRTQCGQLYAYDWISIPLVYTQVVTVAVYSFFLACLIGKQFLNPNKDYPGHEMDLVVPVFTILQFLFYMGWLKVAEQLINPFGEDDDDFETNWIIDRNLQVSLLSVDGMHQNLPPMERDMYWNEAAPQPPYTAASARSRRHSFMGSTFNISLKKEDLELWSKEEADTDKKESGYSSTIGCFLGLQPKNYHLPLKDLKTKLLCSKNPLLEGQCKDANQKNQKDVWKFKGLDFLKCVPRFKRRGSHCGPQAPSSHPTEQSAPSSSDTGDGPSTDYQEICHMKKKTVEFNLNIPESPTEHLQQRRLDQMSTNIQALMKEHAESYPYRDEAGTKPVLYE
Description: For Best1 channel to mediate release of GABA, it has to permeate GABA upon channel opening. To test for GABA permeability of Best1 channel, a two-cell sniffer patch technique was developed to directly measure GABA release via Best1 channel in sensor HEK293T cells that express GABAc, and via other channels that are expressed in source HEK293T cells (FIG. 1b).
pIRES-Best1-dsRED plasmid (obtained by cloning Best1 using pIRES-dsRED (Invitrogen)) and GABAc with GFP (obtained by cloning GABAc using pcDNA3.1 (Invitrogen)) were transfected into HEK 293T cells (ATCC) using Effectene transfection reagent (Qiagen). […]
GABA release was induced by a break-though of membrane patch that goes into a whole-cell configuration in the source cell and such the released GABA was monitored and detected by a neighboring sensor cell. Full activation of GABA current was obtained by bath application of 100 μM GABA and the percentage of full activation was calculated (FIGS. 1c and 1d).
Permeated GABA is detected in sensor as an inward current (bottom traces). […] The GABA permeability of said mutant was determined by using cells obtained by transfecting said mutant into HEK293t cell (ATCC). […] The GABA permeability of said AN01 was determined by using cells obtained by transfecting said mutant into HEK293t cell (ACTT).

cerebellar granule cells = test: Clomeleon imaging of [Cl−]i in cerebellar granule cells (tonic GABA release); assay type: cell-based, mouse; details: bath application of 10 μM
Experimental: B6 wildtype, GFAP-GFP and hGFAP-CreERT2 trangenic mice (SPF room, Center for Neural Science, KIST, Seoul, Korea) were anaesthetized by intraperitoneal injection of 2% avertin (20 μl/g, sigma) and placed in a stereotaxic frame (David Kopf instrument). pSicoR-b1shRNA-mCherry or scrambled virus (Macrogen) was stereo-injected into cerebellar cortex at a rate of 0.2 μl/min (total 2 μl) using syringe pump (Harvard apparatus) and 25 μl syringe (Hamilton company). The coordination of injection site was 1.7 mm from the lambda and the depth was 1.5-1.7 mm from the skull. […]
Clomeleon, based on fluorescence resonance energy transfer (FRET), is a genetically-encoded fluorescent indicator for Cl^− in which chloride-sensitive yellow fluroscent protein fused with chloride-insensitive cyan fluorescent protein via a flexible peptide linker (Kuner and Augustine, 2000). […]
For imaging, two ROIs (Regions of Interest) covering the granule cell layer and the molecular layer were drawn. […] Fluorescence excitation was produced by two consecutive 200 to 500 ms long light pulses at 0.5 Hz and fluorescence emission was alternately collected at each wavelength with a back-illuminated, cooled CCD camera with the on-chip multiplication gain control (Cascade 512B, Photometrics). […]

hBest1 = target: T2, hBest1 (Homo sapiens, UniProt O76090); details: cited from earlier work
T2 sequence (O76090 1-585): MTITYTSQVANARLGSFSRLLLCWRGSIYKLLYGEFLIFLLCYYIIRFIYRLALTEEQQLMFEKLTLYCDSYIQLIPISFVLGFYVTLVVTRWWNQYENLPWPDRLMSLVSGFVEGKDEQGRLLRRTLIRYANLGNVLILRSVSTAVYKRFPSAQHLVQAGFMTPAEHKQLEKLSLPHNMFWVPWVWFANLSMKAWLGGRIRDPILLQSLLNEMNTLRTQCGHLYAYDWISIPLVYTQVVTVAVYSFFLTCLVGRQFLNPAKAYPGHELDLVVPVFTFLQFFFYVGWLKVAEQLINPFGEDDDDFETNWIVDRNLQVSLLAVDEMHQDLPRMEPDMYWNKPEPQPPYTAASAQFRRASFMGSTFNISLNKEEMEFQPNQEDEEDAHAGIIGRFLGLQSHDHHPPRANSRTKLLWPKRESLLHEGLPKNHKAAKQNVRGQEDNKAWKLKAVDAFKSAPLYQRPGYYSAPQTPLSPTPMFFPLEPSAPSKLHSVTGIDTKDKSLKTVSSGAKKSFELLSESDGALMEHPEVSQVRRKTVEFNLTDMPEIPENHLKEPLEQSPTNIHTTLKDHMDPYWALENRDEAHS

Question: Which “GABA release via Best1” value (Best1 channel) does the source give for `O=C(O)c1cc([N+](=O)[O-])ccc1NCCCc1ccccc1` [NPPB, 5-nitro-2(3-phenylpropylamino)-benzoic acid] here?
Answer: The value was “completely abolished”.

Question: And the “[Cl−]i in granular cell bodies and parallel fibers” value (cerebellar granule cells)?
Answer: The value was “decreased”.

Question: What about the “block of hBest1 Cl− channel” value (hBest1) of the same compound?
Answer: The value was “readily blocked”.
